Measured values reported in PubChem BioAssay AID256 (DTP/NCI, 2004).
Several values for one entry are separate records, joined by “and”; a condition that tells them apart may be missing. Equal values may be shown once. Toxic doses and inconclusive results are not listed.

System: CD2F1 mice, L1210 leukemia ip, survival T/C
Assay: NCI In Vivo Anticancer Drug Screen. Data for tumor model L1210 Leukemia (intraperitoneal) in CD2F1 (CDF1) mice
Conditions: higher = longer survival
Summary of the method: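 Transplantable tumor in mice; compound-treated vs vehicle-treated groups. Read-out = treated/control ratio of the measured endpoint.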

With `CCCc1cccc[n+]1CC(=O)c1ccccc1` the T/C (endpoint: mean survival time, dose: 6.25 mg/kg/injection, schedule: Q04DX003 (ip), vehicle: saline) was 106 % of control, the T/C (endpoint: mean survival time, dose: 12.5 mg/kg/injection, schedule: Q04DX003 (ip), vehicle: saline) was 98 % of control and the T/C (endpoint: mean survival time, dose: 25.0 mg/kg/injection, schedule: Q04DX003 (ip), vehicle: saline) was 98 % of control.

With `CN(C)NC(=O)/C=C\C(=O)O` the T/C (endpoint: mean survival time, dose: 100.0 mg/kg/injection, schedule: Q01DX009 (ip), vehicle: saline) was 101 % of control and the T/C (endpoint: mean survival time, dose: 200.0 mg/kg/injection, schedule: Q01DX009 (ip), vehicle: saline) was 101 % of control.

In the case of `COC1(OC)C(Cl)=C(Cl)C(Cl)=C1Cl`, the T/C (endpoint: mean survival time, dose: 6.25 mg/kg/injection, schedule: Q01DX009 (ip), vehicle: saline with Tween-80) is reported as 96 % of control, the T/C (endpoint: mean survival time, dose: 12.5 mg/kg/injection, schedule: Q01DX009 (ip), vehicle: saline with Tween-80) is reported as 98 % of control and the T/C (endpoint: mean survival time, dose: 12.5 mg/kg/injection, schedule: Q04DX003 (ip), vehicle: saline with Tween-80) is reported as 111 % of control. For the same compound, the T/C (endpoint: mean survival time, dose: 25.0 mg/kg/injection, schedule: Q01DX009 (ip), vehicle: saline with Tween-80) was 96 % of control and the T/C (endpoint: mean survival time, dose: 25.0 mg/kg/injection, schedule: Q04DX003 (ip), vehicle: saline with Tween-80) was 111 % of control.

`CC1=[C-]C=CS1=O.[C-]#[O+].[C-]#[O+].[C-]#[O+].[Mo].[c-]1[c-][c-][cH-][c-]1` (configuration not stated) was tested, and the T/C (endpoint: mean survival time, dose: 9.38 mg/kg/injection, schedule: Q04DX002 (ip), vehicle: saline with Tween-80) was 96 % of control, the T/C (endpoint: mean survival time, dose: 18.7 mg/kg/injection, schedule: Q04DX002 (ip), vehicle: saline with Tween-80) was 96 % of control and the T/C (endpoint: mean survival time, dose: 37.5 mg/kg/injection, schedule: Q04DX002 (ip), vehicle: saline with Tween-80) was 100 % of control.

With `O=[N+]([O-])c1cc(Br)ccc1P(=O)(O)O` the T/C (endpoint: mean survival time, dose: 50.0 mg/kg/injection, schedule: Q04DX003 (ip), vehicle: saline) was 95 % of control, the T/C (endpoint: mean survival time, dose: 100.0 mg/kg/injection, schedule: Q04DX003 (ip), vehicle: saline) was 96 % of control and the T/C (endpoint: mean survival time, dose: 200.0 mg/kg/injection, schedule: Q04DX003 (ip), vehicle: saline) was 93 % of control.

For `CCc1ncnc2cc(OCC3CO3)c(OC)cc12` (configuration not stated), the T/C (endpoint: median survival time, dose: 6.25 mg/kg/injection, schedule: Q01DX009 (ip), vehicle: saline with Tween-80) was 109 % of control, the T/C (endpoint: median survival time, dose: 6.25 mg/kg/injection, schedule: Q01DX009 (ip), vehicle: saline) was 112 % of control and the T/C (endpoint: median survival time, dose: 7.5 mg/kg/injection, schedule: Q01DX009 (ip), vehicle: suspension in saline) was 123 % of control. The T/C (endpoint: median survival time, dose: 10.0 mg/kg/injection, schedule: Q03DX003 (ip), vehicle: saline) was 154 % of control, the T/C (endpoint: median survival time, dose: 12.5 mg/kg/injection, schedule: Q01DX009 (ip), vehicle: saline with Tween-80) was 116 % of control and the T/C (endpoint: median survival time, dose: 12.5 mg/kg/injection, schedule: Q01DX009 (ip), vehicle: saline) was 121 % of control. For the same compound, the T/C (endpoint: median survival time, dose: 20.0 mg/kg/injection, schedule: Q01DX009 (ip), vehicle: other) was 156 % of control, the T/C (endpoint: median survival time, dose: 40.0 mg/kg/injection, schedule: Q01DX009 (ip), vehicle: other) was 166 % of control and the T/C (endpoint: median survival time, dose: 40.0 mg/kg/injection, schedule: Q04DX003 (ip), vehicle: other) was 112 % of control. The T/C (endpoint: median survival time, dose: 50.0 mg/kg/injection, schedule: Q01DX009 (ip), vehicle: DMSO) was 169 % of control, the T/C (endpoint: median survival time, dose: 50.0 mg/kg/injection, schedule: Q03DX003 (ip), vehicle: saline) was 152 % of control and 169 % of control and the T/C (endpoint: median survival time, dose: 80.0 mg/kg/injection, schedule: Q01DX001 (ip), vehicle: other) was 174 % of control. For the same compound, the T/C (endpoint: median survival time, dose: 80.0 mg/kg/injection, schedule: Q01DX001 (ip), vehicle: water) was 178 % of control, the T/C (endpoint: median survival time, dose: 80.0 mg/kg/injection, schedule: Q04DX003 (ip), vehicle: other) was 153 % of control and the T/C (endpoint: median survival time, dose: 120.0 mg/kg/injection, schedule: Q01DX001 (ip), vehicle: other) was 182 % of control. For the same compound, the T/C (endpoint: median survival time, dose: 120.0 mg/kg/injection, schedule: Q01DX001 (ip), vehicle: water) was 160 % of control and the T/C (endpoint: median survival time, dose: 120.0 mg/kg/injection, schedule: Q04DX003 (ip), vehicle: other) was 150 % of control.

For `CC(C#N)N(C)C` (configuration not stated), the T/C (endpoint: mean survival time, dose: 10.0 mg/kg/injection, schedule: Q04DX003 (ip), vehicle: saline) was 97 % of control, the T/C (endpoint: mean survival time, dose: 20.0 mg/kg/injection, schedule: Q04DX003 (ip), vehicle: saline) was 104 % of control and the T/C (endpoint: mean survival time, dose: 40.0 mg/kg/injection, schedule: Q04DX003 (ip), vehicle: saline) was 97 % of control.

For `Cc1c2ccncc2cc2c1[nH]c1ccccc12`, the T/C (endpoint: mean survival time, dose: 0.8 mg/kg/injection, schedule: Q03HX008 (iv), vehicle: saline) was 97 % of control, the T/C (endpoint: mean survival time, dose: 1.6 mg/kg/injection, schedule: Q03HX008 (iv), vehicle: saline) was 97 % of control and the T/C (endpoint: mean survival time, dose: 1.6 mg/kg/injection, schedule: Q06HX004 (iv), vehicle: saline) was 97 % of control. The T/C (endpoint: mean survival time, dose: 3.2 mg/kg/injection, schedule: Q06HX004 (iv), vehicle: saline) was 93 % of control, the T/C (endpoint: mean survival time, dose: 3.21 mg/kg/injection, schedule: Q#A X002 (iv), vehicle: saline) was 95 % of control and the T/C (endpoint: mean survival time, dose: 6.3 mg/kg/injection, schedule: Q06HX004 (iv), vehicle: saline) was 97 % of control. For the same compound, the T/C (endpoint: mean survival time, dose: 6.31 mg/kg/injection, schedule: Q#A X002 (iv), vehicle: saline) was 101 % of control, the T/C (endpoint: mean survival time, dose: 12.5 mg/kg/injection, schedule: Q01DX001 (iv), vehicle: saline) was 95 % of control and the T/C (endpoint: mean survival time, dose: 12.51 mg/kg/injection, schedule: Q#A X002 (iv), vehicle: saline) was 100 % of control. For the same compound, the T/C (endpoint: mean survival time, dose: 25.0 mg/kg/injection, schedule: Q01DX001 (iv), vehicle: saline) was 98 % of control and the T/C (endpoint: mean survival time, dose: 25.1 mg/kg/injection, schedule: Q#A X002 (iv), vehicle: saline) was 101 % of control.
